Starred links: 1 amine or outer side, 2 acyl side, 3 side chain; linkers in the order of their positions; H or OH if unused. Positions of bridges follow the written chain, without caps; N, C: chain ends. Non-standard residues stand in square brackets, D forms with d. Residues, ends and D or L forms follow the SMILES beside them. *: point of attachment. hPhe(3,5-F2-4-CF3) = N[C@@H](CCc1cc(F)c(C(F)(F)F)c(F)c1)C(=O)O; hPhe(3-Cl-4-CF3) = N[C@@H](CCc1ccc(C(F)(F)F)c(Cl)c1)C(=O)O; hPhe(3-F,4-CF3) = N[C@@H](CCc1ccc(C(F)(F)F)c(F)c1)C(=O)O; NMePhe(4-CF3) = CN[C@@H](Cc1ccc(C(F)(F)F)cc1)C(=O)O; NMeAbu(4,4,4-F3) = CN[C@@H](CC(F)(F)F)C(=O)O; NMePhe(4-Cl) = CN[C@@H](Cc1ccc(Cl)cc1)C(=O)O; NMePhe(4-Me) = CN[C@@H](Cc1ccc(C)cc1)C(=O)O; NMePhe(4-F) = CN[C@@H](Cc1ccc(F)cc1)C(=O)O; X31 = O=C([C@H](Cc1ccc(Cl)s1)N[*:1])[*:2]; NMeGly(cPent) = CN[C@H](C(=O)O)C1CCCC1; Phe(3-I) = N[C@@H](Cc1cccc(I)c1)C(=O)O; Pro(4,4-F2) = O=C(O)[C@@H]1CC(F)(F)CN1; NMeCha = CN[C@@H](CC1CCCCC1)C(=O)O; Hyp = O=C(O)[C@@H]1C[C@@H](O)CN1; NEtLeu = CCN[C@@H](CC(C)C)C(=O)O; NMeChg = CN[C@H](C(=O)O)C1CCCCC1; NMeF = CN[C@@H](Cc1ccccc1)C(=O)O; NMeI = CC[C@H](C)[C@H](NC)C(=O)O; NMeD = CN[C@@H](CC(=O)O)C(=O)O; NMeL = CN[C@@H](CC(C)C)C(=O)O; NMeV = CN[C@H](C(=O)O)C(C)C; d(β3hA) = C[C@@H](N)CC(=O)O; Morpholide = C1CN(*)CCO1; NMeA = CN[C@@H](C)C(=O)O; NMeAib = CNC(C)(C)C(=O)O; Nle = CCCC[C@H](N)C(=O)O; Piperidide = C1CCN(*)CC1; Pra = C#CC[C@H](N)C(=O)O; Pyrrolidide = C1CCN(*)C1; Ac5c = NC1(C(=O)O)CCCC1; Aze = O=C(O)[C@@H]1CCN1; Sar = CNCC(=O)O

T1 sequence (P01116 1-188 isoform P01116-2 G12D): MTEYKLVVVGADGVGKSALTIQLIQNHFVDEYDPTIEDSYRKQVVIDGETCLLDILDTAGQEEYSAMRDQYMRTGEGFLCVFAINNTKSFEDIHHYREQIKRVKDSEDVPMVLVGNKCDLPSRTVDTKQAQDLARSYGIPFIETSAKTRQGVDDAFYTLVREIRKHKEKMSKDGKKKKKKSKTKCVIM

The experiment addresses T1, Kras and SOS1 (biotin-tagged human Kras loaded with GDP, His-tagged human SOS1) (Homo sapiens, UniProt P01116, G12D).
T1 construct: made in house; host or cells: E. coli (stated for Kras only)
Briefly: Protein-protein interaction inhibition between Kras and SOS1 (KrasGl2D-SOS PPI) using AlphaScreen. It is filed as binding. The following applies: AlphaScreen; biotin-tagged human Kras loaded with GDP, His-tagged human SOS1; read-out: KRAS G12D-SOS PPI IC50. Put shortly:
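Energy transfer from nickel-chelate donor beads bound to His-SOS1 to streptavidin acceptor beads bound to biotin-Kras, expressed in E. coli and loaded with GDP after purification, was monitored. Donors were excited at 680 nm; singlet oxygen reaching acceptors gave emission read at 520-620 nm.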
(Bead proximity is the source of the signal in Alpha formats.)
As usually defined, the IC50 is the concentration at which inhibition is half-maximal. `CC[C@H](C)[C@@H]1NC(=O)[C@H](CC(C)C)N(C)C(=O)C[C@@H](C)NC(=O)[C@H](C2CCCC2)N(C)C(=O)C2(CCCC2)NC(=O)[C@H](C)NC(=O)[C@H](CCc2ccc(C(F)(F)F)c(Cl)c2)NC(=O)CN(C)C(=O)[C@H](Cc2ccc(C)cc2)N(C)C(=O)[C@@H]2CCN2C(=O)[C@H](C)N(C)C1=O` [Compound 1307] (cyclo(A[Ac5c][NMeGly(cPent)][d(β3hA)][NMeL]I[NMeA][Aze][NMePhe(4-Me)][Sar][hPhe(3-Cl-4-CF3)])): the IC50 was 2.7 nM.
Under `C#CC[C@@H]1NC(=O)[C@H](Cc2cccc(I)c2)NC(=O)CN(C)C(=O)[C@H](Cc2ccccc2)N(C)C(=O)[C@@H]2CCN2C(=O)[C@H](C)N(C)C(=O)[C@H]([C@@H](C)CC)NC(=O)[C@H](CC(C)C)N(C)C(=O)C[C@@H](C(=O)N2CCCCC2)N(C)C(=O)[C@H](CC(C)C)NC(=O)C(C)(C)N(C)C1=O` [Compound 1313] ([NMeL]I[NMeA][Aze][NMeF][Sar][Phe(3-I)][Pra][NMeAib]L[NMeD]-Piperidide; lactam N-11) stands 65 nM.
Under `CC[C@H](C)[C@@H]1NC(=O)[C@H](CC(C)C)N(C)C(=O)C[C@@H](C(=O)N2CCCCC2)N(C)C(=O)[C@H](C(C)C)N(C)C(=O)C2(CCCC2)NC(=O)[C@@H](C)NC(=O)[C@H](CCc2ccc(C(F)(F)F)c(Cl)c2)NC(=O)CN(C)C(=O)[C@H](CC2CCCCC2)N(C)C(=O)[C@@H]2CCN2C(=O)[C@H](C)N(C)C1=O` [Compound 1314] ([NMeL]I[NMeA][Aze][NMeCha][Sar][hPhe(3-Cl-4-CF3)][dA][Ac5c][NMeV][NMeD]-Piperidide; lactam N-11) stands 90 nM.
Under `CC[C@H](C)[C@@H]1NC(=O)[C@H](CC(C)C)N(C)C(=O)C[C@@H](C(=O)N2CCCCC2)N(C)C(=O)[C@H](C(C)C)N(C)C(=O)C2(CCCC2)NC(=O)[C@H](C)NC(=O)[C@H](CCc2ccc(C(F)(F)F)c(Cl)c2)NC(=O)CN(C)C(=O)[C@H](CC2CCCCC2)N(C)C(=O)[C@@H]2CCN2C(=O)[C@H](C)N(C)C1=O` [Compound 1316] ([NMeL]I[NMeA][Aze][NMeCha][Sar][hPhe(3-Cl-4-CF3)]A[Ac5c][NMeV][NMeD]-Piperidide; lactam N-11) stands 3.2 nM.
In the case of `CC[C@H](C)[C@@H]1NC(=O)[C@H](CC(F)(F)F)N(C)C(=O)C[C@@H](C(=O)N2CCCC2)N(C)C(=O)[C@H](C2CCCCC2)N(C)C(=O)C2(CCCC2)NC(=O)[C@@H]2CC(F)(F)CN2C(=O)[C@H](CCc2cc(F)c(C(F)(F)F)c(F)c2)NC(=O)CN(C)C(=O)[C@H](Cc2ccc(C)cc2)N(C)C(=O)CN(C)C(=O)CN(C)C1=O` [Compound 1317] ([NMeAbu(4,4,4-F3)]I[Sar][Sar][NMePhe(4-Me)][Sar][hPhe(3,5-F2-4-CF3)][Pro(4,4-F2)][Ac5c][NMeChg][NMeD]-Pyrrolidide; lactam N-11), the IC50 was found to be 0.57 nM.
For `CCCC[C@@H]1NC(=O)[C@H](Cc2ccc(Cl)s2)NC(=O)CN(C)C(=O)[C@H](Cc2ccc(Cl)cc2)N(C)C(=O)CN(C)C(=O)CN(C)C(=O)[C@H]([C@@H](C)CC)NC(=O)[C@H](CC(C)C)N(C)C(=O)C[C@@H](C(=O)N2CCCCC2)N(C)C(=O)[C@H](CC(C)C)NC(=O)C(C)(C)N(C)C1=O` [Compound 1318] ([NMeL]I[Sar][Sar][NMePhe(4-Cl)][Sar][X31][Nle][NMeAib]L[NMeD]-Piperidide; lactam N-11), the IC50 came to 78 nM.
Under `CC[C@H](C)[C@@H]1NC(=O)[C@H](CC(C)C)N(CC)C(=O)C[C@@H](C(=O)N(C)C)N(C)C(=O)[C@H](C2CCCC2)N(C)C(=O)C2(CCCC2)NC(=O)[C@@H]2CCCN2C(=O)[C@H](CCc2ccc(C(F)(F)F)c(F)c2)NC(=O)CN(C)C(=O)[C@H](CC2CCCCC2)N(C)C(=O)[C@@H]2CCN2C(=O)[C@H](C)N(C)C1=O` [Compound 1324] ([NEtLeu]I[NMeA][Aze][NMeCha][Sar][hPhe(3-F,4-CF3)]P[Ac5c][NMeGly(cPent)][NMeD]-NMe2; lactam N-11) stands 1.2 nM.
The result for `C#CC[C@@H]1NC(=O)[C@H](Cc2cccc(I)c2)NC(=O)CN(C)C(=O)[C@H](Cc2ccc(F)cc2)N(C)C(=O)CN(C)C(=O)CN(C)C(=O)[C@H]([C@@H](C)CC)NC(=O)[C@H](CC(C)C)N(C)C(=O)C[C@@H](C(=O)N2CCCCC2)N(C)C(=O)[C@H](CC(C)C)NC(=O)C(C)(C)N(C)C1=O` [Compound 1327] ([NMeL]I[Sar][Sar][NMePhe(4-F)][Sar][Phe(3-I)][Pra][NMeAib]L[NMeD]-Piperidide; lactam N-11) reads 72 nM; that for `CC[C@H](C)[C@@H]1NC(=O)[C@H](CC(C)C)N(C)C(=O)C[C@@H](C)NC(=O)[C@H](C2CCCC2)N(C)C(=O)C2(CCCC2)NC(=O)[C@@H](C)NC(=O)[C@H](CCc2ccc(C(F)(F)F)c(Cl)c2)NC(=O)CN(C)C(=O)[C@H](Cc2ccc(C)cc2)N(C)C(=O)[C@@H]2CCN2C(=O)[C@H](C)N(C)C1=O` [Compound 1328] (cyclo([Ac5c][NMeGly(cPent)][d(β3hA)][NMeL]I[NMeA][Aze][NMePhe(4-Me)][Sar][hPhe(3-Cl-4-CF3)][dA])), 220 nM.
Under `CCO[C@@H]1C[C@H]2C(=O)NC3(CCCC3)C(=O)N(C)[C@@H]([C@@H](C)CC)C(=O)N(C)[C@H](C(=O)N3CCOCC3)CC(=O)N(C)[C@@H](CC(C)C)C(=O)N[C@@H]([C@@H](C)CC)C(=O)N(C)[C@@H](C)C(=O)N3CC[C@H]3C(=O)N(C)[C@@H](Cc3ccc(C(F)(F)F)cc3)C(=O)N(C)CC(=O)N[C@@H](CCc3ccc(C(F)(F)F)c(Cl)c3)C(=O)N2C1` [Compound 1330] ([NMeL]I[NMeA][Aze][NMePhe(4-CF3)][Sar][hPhe(3-Cl-4-CF3)][Hyp](Et)[Ac5c][NMeI][NMeD]-Morpholide; lactam N-11) stands 0.62 nM; under `CC[C@H](C)[C@@H]1NC(=O)[C@H](CC(C)C)N(C)C(=O)C[C@@H](C(=O)N2CCOCC2)N(C)C(=O)[C@H](C2CCCCC2)N(C)C(=O)C2(CCCC2)NC(=O)[C@@H]2CCCN2C(=O)[C@H](CCc2ccc(C(F)(F)F)c(Cl)c2)NC(=O)CN(C)C(=O)[C@H](CC2CCCCC2)N(C)C(=O)CN(C)C(=O)CN(C)C1=O` [Compound 1333] ([NMeL]I[Sar][Sar][NMeCha][Sar][hPhe(3-Cl-4-CF3)]P[Ac5c][NMeChg][NMeD]-Morpholide; lactam N-11), 0.48 nM; under `CC[C@H](C)[C@@H]1NC(=O)[C@H](CC(C)C)N(C)C(=O)C[C@@H](C(=O)N2CCOCC2)N(C)C(=O)[C@H](C2CCCCC2)N(C)C(=O)C2(CCCC2)NC(=O)[C@@H]2CC(F)(F)CN2C(=O)[C@H](CCc2cc(F)c(C(F)(F)F)c(F)c2)NC(=O)CN(C)C(=O)[C@H](CC2CCCCC2)N(C)C(=O)CN(C)C(=O)CN(C)C1=O` [Compound 1337] ([NMeL]I[Sar][Sar][NMeCha][Sar][hPhe(3,5-F2-4-CF3)][Pro(4,4-F2)][Ac5c][NMeChg][NMeD]-Morpholide; lactam N-11), 0.55 nM.
On to `CC[C@H](C)[C@@H]1NC(=O)[C@H](CC(C)C)N(C)C(=O)C[C@@H](C(=O)N2CCCC2)N(C)C(=O)[C@H](C2CCCC2)N(C)C(=O)C2(CCCC2)NC(=O)[C@@H]2CCCN2C(=O)[C@H](CCc2cc(F)c(C(F)(F)F)c(F)c2)NC(=O)CN(C)C(=O)[C@H](CC2CCCCC2)N(C)C(=O)CN(C)C(=O)CN(C)C1=O` [Compound 1342] ([NMeL]I[Sar][Sar][NMeCha][Sar][hPhe(3,5-F2-4-CF3)]P[Ac5c][NMeGly(cPent)][NMeD]-Pyrrolidide; lactam N-11), for which the IC50 came to 0.53 nM.
For `CC[C@H](C)[C@@H]1NC(=O)[C@H](CC(C)C)N(C)C(=O)C[C@@H](C(=O)N2CCCC2)N(C)C(=O)[C@H]([C@@H](C)CC)N(C)C(=O)C2(CCCC2)NC(=O)[C@@H]2CCCN2C(=O)[C@H](CCc2cc(F)c(C(F)(F)F)c(F)c2)NC(=O)CN(C)C(=O)[C@H](Cc2ccc(C(F)(F)F)cc2)N(C)C(=O)[C@@H]2CCN2C(=O)[C@H](C)N(C)C1=O` [Compound 1343] ([NMeL]I[NMeA][Aze][NMePhe(4-CF3)][Sar][hPhe(3,5-F2-4-CF3)]P[Ac5c][NMeI][NMeD]-Pyrrolidide; lactam N-11), the IC50 was determined as 0.61 nM.
The result for `C#CC[C@@H]1NC(=O)[C@H](Cc2cccc(I)c2)NC(=O)CN(C)C(=O)[C@H](Cc2ccc(F)cc2)N(C)C(=O)[C@@H]2CCN2C(=O)CN(C)C(=O)[C@H]([C@@H](C)CC)NC(=O)[C@H](CC(C)C)N(C)C(=O)C[C@@H](C(=O)N2CCCCC2)N(C)C(=O)[C@H](CC(C)C)NC(=O)C(C)(C)N(C)C1=O` [Compound 1344] ([NMeL]I[Sar][Aze][NMePhe(4-F)][Sar][Phe(3-I)][Pra][NMeAib]L[NMeD]-Piperidide; lactam N-11) reads 190 nM; that for `CC[C@H](C)[C@@H]1NC(=O)[C@H](CC(C)C)N(C)C(=O)C[C@@H](C(=O)N2CCCCC2)N(C)C(=O)[C@H](C2CCCCC2)N(C)C(=O)C2(CCCC2)NC(=O)[C@@H]2CCCN2C(=O)[C@H](CCc2ccc(C(F)(F)F)c(Cl)c2)NC(=O)CN(C)C(=O)[C@H](CC2CCCCC2)N(C)C(=O)CN(C)C(=O)[C@H](C)N(C)C1=O` [Compound 1345] ([NMeL]I[NMeA][Sar][NMeCha][Sar][hPhe(3-Cl-4-CF3)]P[Ac5c][NMeChg][NMeD]-Piperidide; lactam N-11), 40 nM.
Under `CC[C@H](C)[C@@H]1NC(=O)[C@H](CC(C)C)N(C)C(=O)C[C@@H](C(=O)N(C)C)N(C)C(=O)[C@H](C2CCCC2)N(C)C(=O)C2(CCCC2)NC(=O)[C@@H]2CC(F)(F)CN2C(=O)[C@H](CCc2cc(F)c(C(F)(F)F)c(F)c2)NC(=O)CN(C)C(=O)[C@H](CC2CCCCC2)N(C)C(=O)[C@@H]2CCN2C(=O)[C@H](C)N(C)C1=O` [Compound 1346] ([NMeL]I[NMeA][Aze][NMeCha][Sar][hPhe(3,5-F2-4-CF3)][Pro(4,4-F2)][Ac5c][NMeGly(cPent)][NMeD]-NMe2; lactam N-11) stands 0.6 nM.

These data come from patent publication US12371454B2, “Cyclic peptide compound having Kras inhibitory action” (priority 2019, dated 2025).
